According to patent US20190053492A1, “SUBSTITUTED PYRIDINE COMPOUNDS AS PESTICIDES” (Bayer CropScience Aktiengesellschaft, priority 2016, published 2019):
Where two headings read alike, the source gives them in different places.

What was measured:
[1] = log P by HPLC on reversed-phase column (C 18), EEC Directive 79/831 Annex V.A8; type: physicochemical; conditions: 55° C.; for LOGP_HCOOH: log P (HCOOH); for chromatographic logP: reversed-phase HPLC column (C 18)
Description: Temperature: 55° C. […] Called log P (HCOOH) in the table. […] Called log P (neutral) in the table.

Phaedon cochleariae = Phaedon cochleariae spray test; type: in vivo; conditions: after 7 days, Chinese cabbage leaf discs; for pest or weed control at 100 g/ha / pest or weed control at 500 g/ha: Phaedon cochleariae, foliar, 168 h, read-out: efficacy (beetle larvae killed)
Procedure, shortened: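 Chinese cabbage leaf discs sprayed with compound in acetone/DMF and emulsifier-containing water, then infested with mustard beetle larvae once dry. Efficacy in % scored after 7 days (100% = all larvae killed, 0% = none).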

Spodoptera frugiperda = Spodoptera frugiperda spray test; type: in vivo; conditions: after 7 days, maize leaf discs; for pest or weed control at 500 g/ha / pest or weed control at 100 g/ha: Spodoptera frugiperda, foliar, 168 h, read-out: efficacy (caterpillars killed)
Procedure, shortened: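 Maize leaf discs were sprayed with compound formulated in acetone/DMF and emulsifier-containing water, dried, then infested with Spodoptera frugiperda caterpillars. Percent kill was scored after 7 days, from 100% (all dead) to 0% (none dead).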

[2] = acidic range at pH 2.7, 0.1% aqueous formic acid and acetonitrile, HPLC on reversed-phase column (C 18)
[3] = log P, neutral range, HPLC on reversed-phase column (C 18)
[4] = pH 2.7, LC-MS acidic range, pH 2.7, 0.1% formic acid/acetonitrile, read-out: log P (acidic) / log P (HCOOH)
[5] = pH 7.8, LC-MS neutral range, pH 7.8, ammonium hydrogencarbonate/acetonitrile, read-out: log P (neutral)
[6] = acidic range pH 2.7, 0.1% aqueous formic acid and acetonitrile, reversed-phase column (C 18)
[7] = log P (neutral), HPLC reversed-phase column (C 18)

| SMILES | LOGP_HCOOH [1, 2] | LOGP_NEUTRAL [1, 3] | chromatographic logP [1, 4] | chromatographic logP [1, 5] | LOGP_HCOOH [1, 6] | LOGP_NEUTRAL [1, 7] | pest or weed control at 100 g/ha (Phaedon cochleariae; application rate 100 g/ha) [%] | pest or weed control at 500 g/ha (Phaedon cochleariae; application rate 500 g/ha) [%] | pest or weed control at 500 g/ha (Spodoptera frugiperda; application rate 500 g/ha) [%] | efficacy (beetle larvae killed) (Phaedon cochleariae; application rate 500 g/ha) [%] | efficacy (caterpillars killed) (Spodoptera frugiperda; application rate 500 g/ha) [%] | efficacy (beetle larvae killed) (Phaedon cochleariae; application rate 100 g/ha) [%] | efficacy (caterpillars killed) (Spodoptera frugiperda; application rate 100 g/ha) [%] | pest or weed control at 100 g/ha (Spodoptera frugiperda; application rate 100 g/ha) [%] |
| --- | --- | --- | --- | --- | --- | --- | --- | --- | --- | --- | --- | --- | --- | --- |
| N#Cc1ccc(CNC(=O)c2cc(-c3ccc(C(F)(F)F)cn3)cc(NC(=O)C3CC3)n2)cc1 [Example I-174, N-(4-Cyanobenzyl)-6′-[(cyclopropylcarbonyl)amino]-5-(trifluoromethyl)-2,4′-bipyridine-2′-carboxamide] | 3.25 | 3.22 | 3.25 | 3.22 |  |  | 100 | 100 | 100 |  |  |  |  |  |
| N#Cc1ccc(CNC(=O)c2cc(-c3ccc(OC(F)(F)C(F)(F)F)cc3)cc(NC(=O)C3CC3)n2)cc1 [Example I-191] | 4.38 |  |  |  |  |  |  |  |  | 83 | 100 |  |  |  |
| CC(=O)Nc1cc(-c2ccc(OC(F)(F)F)cc2)cc(C(=O)NCc2ccc(C#N)cc2)n1 [Example I-204] |  | 3.27 |  |  |  |  |  |  |  | 100 | 100 | 100 | 100 |  |
| N#Cc1ccc(CNC(=O)c2cc(-c3ccc(OC(F)(F)F)cc3)cc(NC(=O)C3(Cl)CC3)n2)cc1 [Example I-205] |  | 4.62 |  |  |  |  |  |  |  | 100 | 100 |  | 100 |  |
| CC(C)(C)C(=O)Nc1cc(-c2ccc(OC(F)(F)F)cc2)cc(C(=O)NCc2ccc(C#N)cc2)n1 [Example I-206] |  | 4.45 |  |  |  |  |  |  |  | 100 | 100 |  | 100 |  |
| N#Cc1ccc(CNC(=O)c2cc(-c3cccc(OC(F)(F)F)c3)cc(NC(=O)C3CC3)n2)cc1 [Example I-208] | 3.81 | 3.71 |  |  |  |  |  |  |  | 100 |  | 100 | 100 |  |
| NC(=S)c1ccc(CNC(=O)c2cc(-c3ccc(OC(F)(F)F)cc3)cc(NC(=O)C3CC3)n2)cc1 [Example I-214] | 3.45 | 3.35 |  |  |  |  |  |  |  |  | 100 | 83 | 100 |  |
| CN(C(=O)C1CC1)c1cc(-c2ccc(OC(F)(F)F)cc2)cc(C(=O)NCc2ccc(C#N)cc2)n1 [Example I-215, N-(4-Cyanobenzyl)-6-[(cyclopropylcarbonyl)(methyl)amino]-4-[4-(trifluoromethoxy)phenyl]pyridine-2-carboxamide] | 3.85 | 3.84 | 3.85 | 3.84 |  |  | 100 |  | 83 |  |  |  |  | 100 |
| CC(C)ONC(=O)c1cc(-c2ccc(OC(F)(F)F)cc2)cc(NC(=O)C2CC2)n1 [Example I-237, 6-[(Cyclopropylcarbonyl)amino]-N-isopropoxy-4-[4-(trifluoromethoxy)phenyl]pyridine-2-carboxamide] |  |  | 3.5 | 3.45 | 3.50 | 3.45 |  | 83 | 100 |  |  |  |  |  |
| N#Cc1ccc(ONC(=O)c2cc(-c3ccc(OC(F)(F)F)cc3)cc(NC(=O)C3CC3)n2)cc1 [Example I-239] |  |  |  |  | 3.72 | 3.13 |  |  |  |  | 83 | 83 |  |  |
| O=C(NCc1ccc([N+](=O)[O-])s1)c1cc(-c2ccc(OC(F)(F)F)cc2)cc(NC(=O)C2CC2)n1 [Example I-240] |  |  |  |  | 4.10 | 4.04 |  |  |  | 100 | 100 |  | 83 |  |
| N#Cc1ccc(CNC(=O)c2cc(-c3ccc(OC(F)(F)F)cc3)cc(NC(=O)CC(F)(F)F)n2)cc1 [Example I-241] |  |  |  |  | 3.90 | 3.96 |  |  |  | 100 | 100 |  | 100 |  |
| O=C(NC1CC1)c1cc(-c2ccc(C(F)(F)C(F)(F)F)c(F)c2)cc(NC(=O)C2CC2)n1 [Example I-243] |  |  |  |  | 3.94 |  |  |  |  | 100 | 100 | 100 | 100 |  |
| COC1(NC(=O)c2cc(-c3ccc(C(F)(F)C(F)(F)F)c(F)c3)cc(NC(=O)C3CC3)n2)CC1 [Example I-244] |  |  |  |  | 4.08 | 4.08 |  |  |  | 100 | 100 | 100 | 100 |  |
| O=C(NCCC(F)(F)F)c1cc(-c2ccc(C(F)(F)C(F)(F)F)c(F)c2)cc(NC(=O)C2CC2)n1 [Example I-246] |  |  |  |  | 4.37 | 4.32 |  |  |  | 100 | 100 | 83 | 100 |  |

Second part, led by results:

| LOGP_HCOOH [1, 2] | LOGP_NEUTRAL [1, 3] | chromatographic logP [1, 4] | chromatographic logP [1, 5] | LOGP_HCOOH [1, 6] | LOGP_NEUTRAL [1, 7] | SMILES | pest or weed control at 100 g/ha (Phaedon cochleariae; application rate 100 g/ha) [%] | pest or weed control at 500 g/ha (Phaedon cochleariae; application rate 500 g/ha) [%] | pest or weed control at 500 g/ha (Spodoptera frugiperda; application rate 500 g/ha) [%] | efficacy (beetle larvae killed) (Phaedon cochleariae; application rate 500 g/ha) [%] | efficacy (caterpillars killed) (Spodoptera frugiperda; application rate 500 g/ha) [%] | efficacy (beetle larvae killed) (Phaedon cochleariae; application rate 100 g/ha) [%] | efficacy (caterpillars killed) (Spodoptera frugiperda; application rate 100 g/ha) [%] | pest or weed control at 100 g/ha (Spodoptera frugiperda; application rate 100 g/ha) [%] |
| --- | --- | --- | --- | --- | --- | --- | --- | --- | --- | --- | --- | --- | --- | --- |
|  |  |  |  | 4.55 |  | N#Cc1cc(F)c(CNC(=O)c2cc(-c3ccc(C(F)(F)C(F)(F)F)c(F)c3)cc(NC(=O)C3CC3)n2)c(F)c1 [Example I-248] |  |  |  | 100 | 100 | 100 | 100 |  |
|  |  |  |  | 4.45 | 4.38 | N#Cc1ccc(CNC(=O)c2cc(-c3ccc(C(F)(F)C(F)(F)F)c(F)c3)cc(NC(=O)C3CC3)n2)c(F)c1 [Example I-251] |  |  |  | 100 | 100 | 83 | 100 |  |
|  |  | 3.88 | 3.83 | 3.88 | 3.83 | N#Cc1ccc(/C=N/NC(=O)c2cc(-c3ccc(OC(F)(F)F)cc3)cc(NC(=O)C3CC3)n2)cc1 [Example I-252, N-(6-{[(2E)-2-(4-Cyanobenzylidene)hydrazino]carbonyl}-4-[4-(trifluoromethoxy)phenyl]pyridin-2-yl)cyclopropanecarboxamide] |  | 100 | 100 |  |  |  |  | 83 |
|  |  |  |  | 3.96 | 3.91 | CC(C)(CS(C)(=O)=O)NC(=O)c1cc(-c2ccc(C(F)(F)C(F)(F)F)c(F)c2)cc(NC(=O)C2CC2)n1 [Example I-253] |  |  |  | 100 | 100 | 100 | 100 |  |
|  |  |  |  | 4.03 | 3.98 | N#Cc1ccc(CNC(=O)c2cc(-c3ccc(OC(F)(F)C(F)C(F)(F)F)cc3)cc(NC(=O)C3CC3)n2)cc1 (centres unmarked) [Example I-254] |  |  |  | 100 | 100 | 100 | 83 |  |
|  |  | 2.08 | 4.24 | 2.08 | 4.24 | N#Cc1ccc(CNC(=N)c2cc(-c3ccc(OC(F)(F)F)cc3)cc(NC(=O)C3CC3)n2)cc1 [Example I-258, N-{6-[N-(4-Cyanobenzyl)carbamimidoyl]-4-[4-(trifluoromethoxy)phenyl]pyridin-2-yl}cyclopropanecarboxamide] |  | 83 | 83 |  |  |  |  |  |
|  |  |  |  | 2.09 | 4.19 | N#Cc1ccc(NC(=N)c2cc(-c3ccc(OC(F)(F)F)cc3)cc(NC(=O)C3CC3)n2)cc1 [Example I-261] |  |  |  | 83 | 100 |  | 100 |  |
|  |  |  |  | 3.75 | 3.73 | N#Cc1ccc(CNC(=O)c2cc(-c3ccc(Br)c(F)c3)cc(NC(=O)C3CC3)n2)cc1 [Example I-262] |  |  |  | 100 | 100 | 100 | 100 |  |
|  |  |  |  | 4.57 | 4.54 | O=C(NC(=O)c1cc(-c2ccc(C(F)(F)C(F)(F)F)c(F)c2)cc(NC(=O)C2CC2)n1)c1ccc([N+](=O)[O-])cc1 [Example I-263] |  |  |  | 100 | 100 |  |  |  |
